Measured values from US20220401468A1 (priority 2021, published 2022).

System: VSV-eGFP-SARS-CoV-2
Type: cell-based, VSV-SARS-CoV-2 chimeric virus

For Heparin sodium salt, the “half-maximal inhibitory concentration (IC50), infected (GFP+) cells” value was 0.03 µg/mL.
